The source of these data is PMC8317927 (Journal of Enzyme Inhibition and Medicinal Chemistry, 2021).

One data set deals with T1, bovine testicular HAase (Bos taurus, UniProt Q2YDK3).
T1 sequence (Q2YDK3 36-553): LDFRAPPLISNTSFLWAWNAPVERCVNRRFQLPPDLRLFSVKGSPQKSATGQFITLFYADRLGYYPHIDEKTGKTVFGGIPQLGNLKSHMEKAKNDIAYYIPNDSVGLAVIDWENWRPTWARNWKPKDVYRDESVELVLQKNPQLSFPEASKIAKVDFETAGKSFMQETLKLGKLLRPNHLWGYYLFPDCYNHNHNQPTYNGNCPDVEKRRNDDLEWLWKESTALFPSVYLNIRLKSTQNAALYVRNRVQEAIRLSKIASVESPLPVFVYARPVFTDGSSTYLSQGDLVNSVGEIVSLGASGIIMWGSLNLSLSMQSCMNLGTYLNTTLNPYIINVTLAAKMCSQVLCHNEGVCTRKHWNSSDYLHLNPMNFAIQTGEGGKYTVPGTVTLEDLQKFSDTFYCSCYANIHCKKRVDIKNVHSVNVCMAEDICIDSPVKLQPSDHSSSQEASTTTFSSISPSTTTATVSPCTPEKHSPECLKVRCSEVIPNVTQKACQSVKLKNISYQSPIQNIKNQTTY
Nature of the data set: Hyaluronidase inhibition assay. It counts as biochemical. Particulars: for inhibition at 40 µg/mL: read-out: Inhibition (%) of HAase enzyme activity; for IC50 on HAase enzyme activity: nonlinear regression of inhibition rates at five concentrations (1-40 µg/mL). The method, then: Inhibitory effect on bovine testicular HAase activity was evaluated using a reported method with minor modifications. It is noted that long HA chains and HAase may form of non-active complexes at low ionic condition, which can impede the catalytic activity of HAase and disrupt the HAase inhibition assay. This interference can be avoided by adding a positively charged protein to balance the ionic strength of the reaction system and recover the activity of HAase[24]. […] […] Then hyaluronic acid (HA; 100 μL) was added to the pre-incubated mixture at 37 °C for 45 min. […] The absorbance was then measured at a wavelength of 600 nm using a microplate reader (SpectraMax M2, Molecular Devices Corp., operated by SoftmaxPro v.4.6 software, Sunnyvale, CA, USA). Each sample was tested at least in three replicates. […] The IC50 value of each sample was determined by analysing its inhibition rates at different concentrations with a nonlinear regression algorithm by GraphPad Prism.

Data set [1] can be described thus: Cell viability, XTT assay. The format is cell-based. The conditions noted are these: human, HaCaT keratinocyte cells. The procedure:
Human keratinocytes (HaCaT) cells were purchased from Sigma Aldrich Co. (St. Louis, MO, USA) and cultured in Dulbecco’s modified Eagle’s medium (DMEM; Life Technologies; Gaithersburg, MD, USA) with 10% fetal bovine serum (Gibico; Grand Island, NY, USA) at 37 °C in the presence of 5% CO2. The cell viability of HaCaT treated with or without OA and its derivatives was measured by the XTT assay according to manufacturer’s instructions (XTT Cell proliferation Kit II; Roche, USA). Briefly, HaCaT cells were seeded in 96-well plates at 5 × 10^3 cells per well and allowed to attach for 12 h. Then OA and its derivatives (100 µL; 10 µg/mL) were incubated with cells for 24 h, followed by adding the XTT reagent (50 µL; 0.3 mg/mL) in each well and incubated for 4 h. The absorbance of each well was measured at wavelengths of 450 nm using a SpectraMax M2 plate reader (Molecular Devices; Sunnyvale, CA, USA).
(In general: Tetrazolium dyes change colour on reduction, which living cells bring about.)

In another data set the test system is HAase. In words: Lineweaver-Burk plot, enzyme kinetics of HAase inhibition. It counts as biochemical, bovine. The conditions noted are these: four concentrations (5–40 µg/mL); HA 0.125–2.0 µM (6c), 0.2–1.0 µM (6g). The procedure: The inhibition type of test compounds was determined by the Lineweaver-Burk plots.
The next data set has as its system HaCaT cells. In words: Cellular reactive oxygen species (ROS), H2O2-induced, DCFDA probe. The format is cell-based, human. The conditions noted are these: 10 µg/mL for 24 h, then H2O2 200 µM for 1 h. The method, then: HaCaT cells were seeded in 96-well plates at 6 × 10^3 cells per well and allowed to attach for 12 h. Then the cells were incubated with test samples (10 µg/mL) for 24 h. Next, the cell culture medium was removed and fresh phosphate buffer solution (PBS; 100 µL) containing a fluorescent probe 2′,7′-dichlorofluorescin diacetate (DCFDA; 20 µM) was added to the cells and incubated for 20 min. Then the cells were treated with H2O2 (100 µL; 200 µM) for 1 h followed by measuring the fluorescence intensity of each well with excitation and emission wavelengths of 485 and 525 nm, respectively, using a SpectraMax M2 plate reader.

Structures are written as SMILES. ≈ marks a conversion by molar mass, not a printed value. Where “and” joins values, the source holds several entries; their conditions need not be identical. Equal entries are not always repeated. Where two headings read alike, the source gives them in different places.

`CC1(C)CC[C@]2(C(=O)O)CC[C@]3(C)C(=CC[C@@H]4[C@@]5(C)CC[C@H](O)C(C)(C)[C@@H]5CC[C@]43C)[C@@H]2C1` [Compound 1, Oleanolic acid, reference compound]: the inhibition (usually the drop in the measured response relative to a control, in per cent) at 40 µg/mL at bovine testicular HAase worked out at 59.3 ± 2.4%. Moreover, the viability (commonly the share of living cells, or the viability signal relative to a control) at 24 h, 10 µg/mL in data set [1] worked out at 96.7%.
On to `CC1(C)CC[C@]2(C(=O)O)CC[C@]3(C)C(=CCC4[C@@]5(C)CCC(=O)C(C)(C)C5CC[C@]43C)C2C1` (stereo partly shown) [Compound 2], for which the inhibition at 40 µg/mL at bovine testicular HAase is 15.9 ± 4.3%.
Regarding `CC1(C)CCC23CC[C@]4(C)C(OC2=O)(C(F)CC2[C@@]5(C)CC[C@H](O)C(C)(C)C5CC[C@]24C)C3C1` (stereo partly shown) [Compound 3], the inhibition at 40 µg/mL on bovine testicular HAase (at 40 μg/mL) turned out to be 12.7 ± 3.9%.
The same measure, in the same setting: as for `CC1(C)CCC23CC[C@]4(C)C(OC2=O)(C(F)CC2[C@@]5(C)CCC(=O)C(C)(C)C5CC[C@]24C)C3C1` (stereo partly shown) [Compound 4], the figure is 37.3 ± 1.4%.
As for `CC1(C)CCC2(C(=O)O)CCC3(C)C(=CCC4C5(C)Cc6c([nH]c7c([N+](=O)[O-])cccc67)C(C)(C)C5CCC43C)C2C1` (stereo not shown) [Compound 6a], at bovine testicular HAase (at 40 μg/mL), the “Inhibition (%) of HAase enzyme activity” value came to 100.9 ± 4.3%. In addition, at bovine testicular HAase, the “IC50 on HAase enzyme activity” value amounted to 16.23 µg/mL (≈ 28.3 µM).
In the case of `CC1(C)CCC2(C(=O)O)CCC3(C)C(=CCC4C5(C)Cc6c([nH]c7c(F)cccc67)C(C)(C)C5CCC43C)C2C1` (stereo not shown) [Compound 6b], the “Inhibition (%) of HAase enzyme activity” value at bovine testicular HAase (at 40 μg/mL) is 100.2% and 100.4 ± 2.4%. The “IC50 on HAase enzyme activity” value against bovine testicular HAase is 12.58 µg/mL (≈ 23 µM).
As to `CC1(C)CCC2(C(=O)O)CCC3(C)C(=CCC4C5(C)Cc6c([nH]c7c(F)cc(F)cc67)C(C)(C)C5CCC43C)C2C1` (stereo not shown) [Compound 6c], on bovine testicular HAase (at 40 μg/mL), the “Inhibition (%) of HAase enzyme activity” value amounted to 86.3 ± 3.3%. On bovine testicular HAase, the “IC50 on HAase enzyme activity” value is given as 9.97 µg/mL (≈ 17.7 µM). Further, the “Inhibition type (Lineweaver-Burk plot)” value with HAase is “mixed type of competitive and non-competitive inhibitions”. Also, the “decrease of ROS level vs H2O2-exposed cells” value in the data set with HaCaT cells was 23.6%.
For the compound `Cc1cc(C)c2[nH]c3c(c2c1)CC1(C)C(CCC2(C)C1CC=C1C4CC(C)(C)CCC4(C(=O)O)CCC12C)C3(C)C` (stereo not shown) [Compound 6d], the “Inhibition (%) of HAase enzyme activity” value at bovine testicular HAase (at 40 μg/mL) amounted to 93.5 ± 3.9%. Further, the “IC50 on HAase enzyme activity” value against bovine testicular HAase is reported as 11.62 µg/mL (≈ 20.9 µM).
The like results for `CC1(C)CCC2(C(=O)O)CCC3(C)C(=CCC4C5(C)Cc6c([nH]c7ccc(Br)cc67)C(C)(C)C5CCC43C)C2C1` (stereo not shown) [Compound 6e] were, in that order, 83.7 ± 3.3% and 11.60 µg/mL (≈ 19.1 µM).
The like results for `CC1(C)CCC2(C(=O)O)CCC3(C)C(=CCC4C5(C)Cc6c([nH]c7c(Br)cccc67)C(C)(C)C5CCC43C)C2C1` (stereo not shown) [Compound 6f] were, in that order, 100.6 ± 3.6% and 10.14 µg/mL (≈ 16.7 µM).
Regarding `CC1(C)CCC2(C(=O)O)CCC3(C)C(=CCC4C5(C)Cc6c([nH]c7c(Cl)cccc67)C(C)(C)C5CCC43C)C2C1` (stereo not shown) [Compound 6g], the “Inhibition (%) of HAase enzyme activity” value on bovine testicular HAase (at 40 μg/mL) was found to be 98.1 ± 0.4%. Moreover, on bovine testicular HAase, the “IC50 on HAase enzyme activity” value is 9.57 µg/mL (≈ 17 µM). Moreover, in the data set with HAase, the “Inhibition type (Lineweaver-Burk plot)” value is “mixed type of competitive and non-competitive inhibitions”.
